Assay results reported in patent US20180186815A1, “PHARMACEUTICAL COMPOSITIONS, METHODS FOR THEIR PREPARATION AND THEIR USE IN THE TREATMENT OF CANCER” (Urifer Ltd., priority 2016, published 2018).
Read-outs that look alike come from different tables or passages of the source.

How the values were obtained:
Format in all cases: cell-based
[1] = tested on: colon cancer cell line HT29; test: Growth profile / viability of HT29 colon cancer cells, XTT test; conditions: Homo sapiens, HT-29, 96 h, Control DMSO = 100%, read-out: percentage of viable cells, HT29
Protocol: (§1) The effect of the compounds Z522-XXX on the growth profile of cancer cells which express Fer was tested. The cells that were tested were: the colon cancer cell lines HT29 and HCT 116, RKO. The effect of each of the compounds on FS cells, a non malingnant fibroblastic cell line, was also studied.
(§2) Generally, cells were seeded in 96 wells microplates and were left to grow untreated overnight. Each of the compounds was dissolved in DMSO and was then added to each well in a final concentration of 5 μM. The concentration of DMSO in each well was 0.4% v/v. Untreated cells and cells subjected to 0.4% DMSO alone, served as controls. The percentage of viable cells in each well was determined 96 hours after compounds addition, using the XTT test (Berridge, M. V. et al, 2005).

[2] = Viability of FS non malignant fibroblastic cells, XTT test; conditions: FS cells (non-malignant fibroblastic cell line), Control DMSO = 100%, read-out: percentage of viable cells, FS
Protocol: as §1, §2

[3] = tested on: colon cancer cell line RKO; test: Growth profile / viability of RKO colon cancer cells, XTT test; conditions: 96 h, Control DMSO = 100%, read-out: percentage of viable cells, RKO
Protocol: as §1, §2

[4] = tested on: colon cancer cell line HCT 116; test: Growth profile / viability of HCT116 colon cancer cells, XTT test; conditions: Homo sapiens, HCT-116, 96 h, Control DMSO = 100%, read-out: percentage of viable cells, HCT116
Protocol: as §1, §2

| Compound | viability at 5 µM ([1]; first HT29 column) [%] | viability at 5 µM ([1]; second HT29 column) [%] | viability at 96 h, 5 µM ([2]; first FS column) [%] | viability at 96 h, 5 µM ([2]; second FS column) [%] | viability at 5 µM ([3]; first RKO column) [%] | viability at 5 µM ([3]; second RKO column) [%] | viability at 5 µM ([4]; first HCT116 column) [%] | viability at 5 µM ([4]; second HCT116 column) [%] |
| --- | --- | --- | --- | --- | --- | --- | --- | --- |
| CN1CCN(C(=O)C2CCN(c3nn4cc(-c5ccc(N6CCN(C)CC6)cc5)nc4s3)CC2)CC1 [Compound Z522-0160, 2-{4-[(4-methylpiperazin-1-yl)carbonyl]-piperidin-1-yl}-6-[4-(4-methyl-piperazin-1-yl)-phenyl]imidazo[2,1-b][1,3,4]-thiadiazole] | 117 | 91 | 101 | 104 | 92 | 109 | 105 | 108 |
| CN1CCN(C(=O)C2CCN(c3nn4cc(-c5ccc(N6CCSCC6)cc5)nc4s3)CC2)CC1 [Compound Z522-0164, 2-{4-[(4-methylpiperazin-1-yl)carbonyl]-piperidin-1-yl}-6-(4-thiomorpholin-4-ylphenyl)-imidazo[2,1-b]-[1,3,4]thiadiazole] | 50 | 42 | 104 | 95 | 60 | 63 | 80 | 97 |
| CC1CCCN(c2ccc(-c3cn4nc(N5CCC(C(=O)N6CCN(C)CC6)CC5)sc4n3)cc2)C1 (centres unmarked) [Compound Z522-0166, 2-{4-[(4-methylpiperazin-1-yl)carbonyl]-piperidin-1-yl}-6-[4-(3-methyl-piperidin-1-yl)-phenyl]imidazo[2,1-b][1,3,4]-thiadiazole] | 4 | 4 | 101 | 92 | 6 | 6 | 30 | 23 |
| CN1CCN(C(=O)C2CCN(c3nn4cc(-c5ccc(-n6cccn6)cc5)nc4s3)CC2)CC1 [Compound Z522-0167, 2-{4-[(4-methyl-piperazin-1-yl)-carbonyl]piperidin-1-yl}-6-[4-(1H-pyrazol-1-yl)-phenyl]imidazo[2,1-b][1,3,4]-thiadiazole] | 87 | 86 | 96 | 92 | 36 | 47 | 94 | 83 |
| CC1CCN(c2ccc(-c3cn4nc(N5CCC(C(=O)N6CCN(C)CC6)CC5)sc4n3)cc2)CC1 [Compound Z522-0170, 2-{4-[(4-methyl-piperazin-1-yl)carbonyl]piperidin-1-yl}-6-[4-(4-methylpiperidin-1-yl)phenyl]-imidazo[2,1-b]-[1,3,4]thiadiazole] | 5 | 2 | 90 | 68 | 3 | 4 | 2 | 3 |
| CC(C)N1CCN(c2ccc(-c3cn4nc(N5CCC(C(=O)N6CCN(C)CC6)CC5)sc4n3)cc2)CC1 [Compound Z522-0174, 6-[4-(4-isopropyl-piperazin-1-yl)-phenyl]-2-{4-[(4-methylpiperazin-1-yl)carbonyl]-piperidin-1-yl}-imidazo[2,1-b]-[1,3,4]thiadiazole] | 77 | 78 | 117 | 113 | 93 | 97 | 105 | 124 |
| CN1CCN(C(=O)C2CCN(c3nn4cc(-c5ccc(N6CCOCC6)cc5)nc4s3)CC2)CC1 [Compound Z522-0176, 2-{4-[(4-methyl-piperazin-1-yl)-carbonyl]piperidin-1-yl}-6-(4-morpholin-4-yl-phenyl)imidazo[2,1-b][1,3,4]-thiadiazole] | 112 | 112 | 103 | 100 | 92 | 89 | 109 | 116 |
| CN1CCN(C(=O)C2CCN(c3nn4cc(-c5ccc(N(C)CCO)cc5)nc4s3)CC2)CC1 [Compound Z522-0177, 2-{methyl[4-(2-{4-[(4-methyl-piperazin-1-yl)-carbonyl]piperidin-1-yl}imidazo-[2,1-b][1,3,4]-thiadiazol-6-yl)-phenyl]amino} ethanol] | 116 | 121 | 120 | 116 | 97 | 96 | 107 | 104 |
| Cc1c(-c2ccc(N(C)C)cc2)nc2sc(N3CCC(C(=O)N4CCN(C)CC4)CC3)nn12 [Compound Z522-0179, N,N-dimethyl-4-(5-methyl-2-{4-[(4-methyl-piperazin-1-yl)carbonyl]piperidin-1-yl}imidazo-[2,1-b][1,3,4]-thiadiazol-6-yl)-aniline] | 103 | 100 | 91 | 117 | 109 | 103 | 101 | 108 |
| Cc1c(-c2ccc(N3CCN(C)CC3)cc2)nc2sc(N3CCC(C(=O)N4CCN(C)CC4)CC3)nn12 [Compound Z522-0180, 5-methyl-2-{4-[(4-methyl-piperazin-1-yl)carbonyl]piperidin-1-yl}-6-[4-(4-methylpiperazin-1-yl)phenyl]-imidazo[2,1-b]-[1,3,4]thiadiazole] | 89 | 90 | 101 | 101 | 95 | 103 | 94 | 105 |
| Cc1c(-c2ccc(N3CCSCC3)cc2)nc2sc(N3CCC(C(=O)N4CCN(C)CC4)CC3)nn12 [Compound Z522-0184, 5-methyl-2-{4-[(4-methyl-piperazin-1-yl)carbonyl]piperidin-1-yl}-6-(4-thiomorpholin-4-ylphenyl)imidazo [2,1-b][1,3,4]-thiadiazole] | 50 | 44 | 71 | 86 | 41 | 53 | 77 | 87 |
| Cc1c(-c2ccc(N3CCCCCC3)cc2)nc2sc(N3CCC(C(=O)N4CCN(C)CC4)CC3)nn12 [Compound Z522-0185, 6-(4-azepan-1-yl-phenyl)-5-methyl-2-{4-[(4-methyl-piperazin-1-yl)carbonyl]piperidin-1-yl}imidazo-[2,1-b][1,3,4]-thiadiazole] | 19 | 11 | 92 | 94 | 14 | 15 | 40 | 42 |
| Cc1c(-c2ccc(N3CCCC(C)C3)cc2)nc2sc(N3CCC(C(=O)N4CCN(C)CC4)CC3)nn12 (stereo not drawn) [Compound Z522-0186, 5-methyl-2-{4-[(4-methyl-piperazin-1-yl)carbonyl]piperidin-1-yl}-6-[4-(3-methylpiperidin-l-yl)phenyl]-imidazo[2,1-b]-[1,3,4]thiadiazole] | 7 | 7 | 82 | 94 | 8 | 11 | 23 | 26 |
